Experimental data: US10815210B2, “Benzocyclobutane derivatives useful as dual SGLT1 / SGLT2 modulators” (Janssen Pharmaceutica NV, priority 2016, dated 2020)

Legend:
[1] = molecular target: T1, human SGLT1 (Homo sapiens, UniProt P13866); assay: SGLT1 assay: Na-dependent 14C-AMG uptake in CHO-K1 cells stably expressing human SGLT1; assay type: cell-based; conditions: for IC50: 500 μM AMG, 2 hours at 37° C.
T1 construct: expressed in transfected cells; host or cells: CHO-K1
T1 sequence (P13866 1-664): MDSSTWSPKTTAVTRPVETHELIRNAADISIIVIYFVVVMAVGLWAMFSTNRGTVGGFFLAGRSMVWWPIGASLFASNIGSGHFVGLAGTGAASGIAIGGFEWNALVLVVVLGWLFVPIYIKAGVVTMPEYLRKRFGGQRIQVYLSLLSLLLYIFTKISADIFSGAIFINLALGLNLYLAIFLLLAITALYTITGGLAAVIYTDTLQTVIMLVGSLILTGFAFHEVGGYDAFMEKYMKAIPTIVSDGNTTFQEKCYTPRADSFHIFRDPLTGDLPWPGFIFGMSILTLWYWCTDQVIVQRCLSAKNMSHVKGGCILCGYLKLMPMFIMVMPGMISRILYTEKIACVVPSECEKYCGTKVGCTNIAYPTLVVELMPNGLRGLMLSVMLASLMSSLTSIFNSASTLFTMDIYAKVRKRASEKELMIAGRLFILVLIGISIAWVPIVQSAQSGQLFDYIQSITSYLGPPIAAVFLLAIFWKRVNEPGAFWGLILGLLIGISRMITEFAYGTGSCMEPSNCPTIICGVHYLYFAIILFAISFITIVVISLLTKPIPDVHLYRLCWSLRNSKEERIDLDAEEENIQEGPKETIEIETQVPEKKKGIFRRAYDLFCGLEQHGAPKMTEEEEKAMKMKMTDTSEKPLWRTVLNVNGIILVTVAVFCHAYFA
Procedure, shortened: (§1)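 CHO-K1 cells stably expressing human SGLT1 or SGLT2, pretreated 24 h with 10 mM Na-butyrate, were exposed 10 min to compound (0.001-10 μM) in Na-containing HEPES/Tris buffer pH 7.4. Uptake of ^14C-AMG (500 μM final) ran 2 h at 37° C, then Na-dependent uptake was counted by scintillation.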

[2] = molecular target: T2, human SGLT2 (Homo sapiens, UniProt P31639); assay: SGLT2 assay: Na-dependent 14C-AMG uptake in CHO-K1 cells stably expressing human SGLT2; assay type: cell-based; conditions: for IC50: 500 μM AMG, 2 hours at 37° C.
T2 construct: expressed in transfected cells; host or cells: CHO-K1
T2 sequence (P31639 1-672): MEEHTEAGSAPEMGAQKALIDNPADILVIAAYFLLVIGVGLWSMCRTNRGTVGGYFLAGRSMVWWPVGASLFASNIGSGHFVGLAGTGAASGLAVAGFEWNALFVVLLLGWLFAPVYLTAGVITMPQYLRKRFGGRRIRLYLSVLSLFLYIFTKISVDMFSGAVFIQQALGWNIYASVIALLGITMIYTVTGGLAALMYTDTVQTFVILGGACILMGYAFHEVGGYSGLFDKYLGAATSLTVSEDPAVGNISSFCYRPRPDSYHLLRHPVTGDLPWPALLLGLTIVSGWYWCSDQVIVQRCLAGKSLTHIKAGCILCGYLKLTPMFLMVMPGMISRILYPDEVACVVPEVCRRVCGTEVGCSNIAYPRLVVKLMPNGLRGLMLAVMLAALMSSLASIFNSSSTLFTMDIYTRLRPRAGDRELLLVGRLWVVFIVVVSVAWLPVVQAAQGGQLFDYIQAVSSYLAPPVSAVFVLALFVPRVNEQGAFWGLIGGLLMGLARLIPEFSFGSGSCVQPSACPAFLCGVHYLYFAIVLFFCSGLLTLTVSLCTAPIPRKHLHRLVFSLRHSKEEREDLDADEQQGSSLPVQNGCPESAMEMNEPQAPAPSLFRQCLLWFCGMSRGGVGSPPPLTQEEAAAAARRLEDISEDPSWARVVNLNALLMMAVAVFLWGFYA
Procedure, shortened: as §1

Row | IC50 [1] | IC50 [2] | inhibition at 0.3 µM [1] | inhibition at 0.03 µM [2] | SMILES
1 | 18 nM | 2 nM | – | – | [2H]C1([2H])Cc2cc(Cc3cc([C@@H]4O[C@H](CO)[C@@H](O)[C@H](O)[C@H]4O)ccc3CC)ccc21 [Compound 87, (2S,3R,4R,5S,6R)-2-(3-((1,1-dideuterium-1,2-dihydrocyclo-butabenzen-4-yl)methyl)-4-ethylphenyl)-6-(hydroxymethyl)-tetrahydro-2H-pyran-3,4,5-triol]
2 | 49 nM | 1 nM | – | – | Cc1ccc([C@@H]2O[C@H](CO)C(F)(F)[C@H](O)[C@H]2O)cc1Cc1ccc2c(c1)CC2 [Compound 91, (2S,3R,4R,6R)-2-(3-(bicyclo[4.2.0]octa-1(6),2,4-trien-3-ylmethyl)-4-methylphenyl)-5,5-difluoro-6-(hydroxymethyl)tetrahydro-2H-pyran-3,4-diol]
3 | 14 nM | 2 nM | – | – | Cc1cc(O)c([C@@H]2O[C@H](CO)C(F)(F)[C@H](O)[C@H]2O)cc1Cc1ccc2c(c1)CC2 [Compound 92, (2S,3R,4R,6R)-2-(5-(bicyclo[4.2.0]octa-1(6),2,4-trien-3-ylmethyl)-2-hydroxy-4-methylphenyl)-5,5-difluoro-6-(hydroxymethyl)tetrahydro-2H-pyran-3,4-diol]
4 | 95 nM | 3 nM | – | – | COc1cc(C)c(Cc2ccc3c(c2)CC3)cc1[C@@H]1O[C@H](CO)C(F)(F)[C@H](O)[C@H]1O [Compound 93, (2S,3R,4R,6R)-2-(5-(bicyclo[4.2.0]octa-1(6),2,4-trien-3-ylmethyl)-2-methoxy-4-methylphenyl)-5,5-difluoro-6-(hydroxymethyl)tetrahydro-2H-pyran-3,4-diol]
5 | – | – | 22% | 70% | OC[C@H]1O[C@@H](c2ccc(F)c(Cc3ccc4c(c3)CC4)c2)[C@H](O)[C@@H](O)[C@@H]1O [Compound 101]
6 | 12 nM | 2 nM | – | – | OC[C@H]1O[C@@H](c2cc(Cc3ccc4c(c3)CC4)c(Cl)cc2O)[C@H](O)[C@@H](O)C1(F)F [Compound 102]
7 | 13 nM | 2 nM | – | – | COc1cc(Cl)c(Cc2ccc3c(c2)CC3)cc1[C@@H]1O[C@H](CO)C(F)(F)[C@H](O)[C@H]1O [Compound 103]
8 | 14 nM | 1 nM | – | – | CCOc1cc(Cl)c(Cc2ccc3c(c2)CC3)cc1[C@@H]1O[C@H](CO)C(F)(F)[C@H](O)[C@H]1O [Compound 104]
9 | 32 nM | 1 nM | – | – | CCOc1cc(CC)c(Cc2ccc3c(c2)CC3)cc1[C@@H]1O[C@H](CO)[C@@H](O)[C@H](O)[C@H]1O [Compound 105]
10 | – | – | 41% | 26% | OC[C@H]1O[C@@H](c2ccc(Cl)c(Cc3ccc4c(c3)CC4)c2)[C@H](O)[C@@H](O)C1(F)F [Compound 106]
11 | 10 nM | 1 nM | – | – | COc1cc(O)c([C@@H]2O[C@H](CO)C(F)(F)[C@H](O)[C@H]2O)cc1Cc1ccc2c(c1)CC2 [Compound 107]
12 | 27 nM | 1 nM | – | – | COc1cc(OC)c([C@@H]2O[C@H](CO)C(F)(F)[C@H](O)[C@H]2O)cc1Cc1ccc2c(c1)CC2 [Compound 108]
13 | 158 nM | 5 nM | – | – | CCOc1cc(OC)c(Cc2ccc3c(c2)CC3)cc1[C@@H]1O[C@H](CO)C(F)(F)[C@H](O)[C@H]1O [Compound 109]
14 | 24 nM | 2 nM | – | – | [2H]C([2H])([2H])Oc1cc(OC)c(Cc2ccc3c(c2)CC3)cc1[C@@H]1O[C@H](CO)[C@@H](O)[C@H](O)[C@H]1O [Compound 112]
15 | 84 nM | 1 nM | – | – | CCOc1cc(C)c(Cc2ccc3c(c2)CC3)cc1[C@@H]1O[C@H](CO)[C@@H](O)[C@H](O)[C@H]1O [Compound 113]
16 | 37 nM | 2 nM | – | – | CCOc1cc(OC)c(Cc2ccc3c(c2)CC3)cc1[C@@H]1O[C@H](CO)[C@@H](O)[C@H](O)[C@H]1O [Compound 114]
17 | 22 nM | 1 nM | – | – | CCOc1cc(Cl)c(Cc2ccc3c(c2)CC3)cc1[C@@H]1O[C@H](CO)[C@@H](O)[C@H](O)[C@H]1O [Compound 115]
18 | 13 nM | 2 nM | – | – | CCc1cc(OC2CC2)c([C@@H]2O[C@H](CO)[C@@H](O)[C@H](O)[C@H]2O)cc1Cc1ccc2c(c1)CC2 [Compound 116]
19 | 50 nM | 2 nM | – | – | OC[C@H]1O[C@@H](c2cc(Cc3ccc4c(c3)CC4)c(Cl)cc2OC2CC2)[C@H](O)[C@@H](O)[C@@H]1O [Compound 117]

Row | IC50 [1] | IC50 [2] | inhibition at 0.3 µM [1] | inhibition at 0.03 µM [2] | SMILES
20 | 22 nM | 1 nM | – | – | Cc1cc(OC2CC2)c([C@@H]2O[C@H](CO)[C@@H](O)[C@H](O)[C@H]2O)cc1Cc1ccc2c(c1)CC2 [Compound 118]
21 | 14 nM | 7 nM | – | – | Cc1c(Cc2ccc3c(c2)CC3)cc([C@@H]2O[C@H](CO)[C@@H](O)[C@H](O)[C@H]2O)c(O)c1I [Compound 120]
22 | – | – | 53% | 55.5% | CCc1cc(OC(F)F)c([C@@H]2O[C@H](CO)[C@@H](O)[C@H](O)[C@H]2O)cc1Cc1ccc2c(c1)CC2 [Compound 122]
23 | 80 nM | 1 nM | – | – | [2H]C1([2H])c2ccc(Cc3cc([C@@H]4O[C@H](CO)[C@@H](O)[C@H](O)[C@H]4O)ccc3Cl)cc2C1([2H])[2H] [Compound 123]
24 | 52 nM | 4 nM | – | – | Cc1ccc([C@@H]2O[C@H](CO)[C@@H](F)[C@H](O)[C@H]2O)cc1Cc1ccc2c(c1)CC2 [Compound 126]
25 | 1 nM | 2 nM | – | – | CCc1cc(O)c([C@@H]2O[C@H](CO)[C@@H](F)[C@H](O)[C@H]2O)cc1Cc1ccc2c(c1)CC2 [Compound 127]
26 | 47 nM | 8 nM | – | – | CCc1ccc([C@@H]2O[C@H](CO)[C@@H](F)[C@H](O)[C@H]2O)cc1Cc1ccc2c(c1)CC2 [Compound 128]
27 | 4 nM | 1 nM | – | – | OC[C@H]1O[C@@H](c2cc(Cc3ccc4c(c3)CC4)c(Cl)cc2O)[C@H](O)[C@@H](O)[C@@H]1F [Compound 129]
28 | 15 nM | 1 nM | – | – | Cc1cc(O)c([C@@H]2O[C@H](CO)[C@@H](F)[C@H](O)[C@H]2O)cc1Cc1ccc2c(c1)CC2 [Compound 130]
29 | 49 nM | 1 nM | – | – | CCOc1cc(C)c(Cc2ccc3c(c2)CC3)cc1[C@@H]1O[C@H](CO)[C@@H](F)[C@H](O)[C@H]1O [Compound 131]
30 | 18 nM | 1 nM | – | – | CCOc1cc(Cl)c(Cc2ccc3c(c2)CC3)cc1[C@@H]1O[C@H](CO)[C@@H](F)[C@H](O)[C@H]1O [Compound 132]
31 | 15 nM | 1 nM | – | – | COc1cc(Cl)c(Cc2ccc3c(c2)CC3)cc1[C@@H]1O[C@H](CO)[C@@H](F)[C@H](O)[C@H]1O [Compound 133]
32 | 36 nM | 2 nM | – | – | OC[C@H]1O[C@@H](c2ccc(Cl)c(Cc3ccc4c(c3)CC4)c2)[C@H](O)[C@@H](O)[C@@H]1F [Compound 134]
33 | 3 nM | 3 nM | – | – | COc1cc(O)c([C@@H]2O[C@H](CO)[C@@H](F)[C@H](O)[C@H]2O)cc1Cc1ccc2c(c1)CC2 [Compound 135]
34 | 9 nM | 1 nM | – | – | COc1cc(OC)c([C@@H]2O[C@H](CO)[C@@H](F)[C@H](O)[C@H]2O)cc1Cc1ccc2c(c1)CC2 [Compound 136]
35 | 20 nM | 1 nM | – | – | CCOc1cc(OC)c(Cc2ccc3c(c2)CC3)cc1[C@@H]1O[C@H](CO)[C@@H](F)[C@H](O)[C@H]1O [Compound 137]
36 | 50 nM | 2 nM | – | – | OC[C@H]1O[C@@H](c2ccc(Cl)c(C(F)(F)c3ccc4c(c3)CC4)c2)[C@H](O)[C@@H](O)[C@@H]1O [Compound 140]
37 | 33 nM | 2 nM | – | – | Cc1ccc([C@@H]2O[C@H](CO)[C@@H](O)[C@H](O)[C@H]2O)cc1C(F)(F)c1ccc2c(c1)CC2 [Compound 141]
38 | 133 nM | 23 nM | – | – | Cc1ccc([C@@H]2O[C@H](CO)[C@@H](F)[C@H](O)[C@H]2O)cc1C(F)(F)c1ccc2c(c1)CC2 [Compound 142]
